Reference: BindingDB's records for doi:10.7270/Q2B27SRF (Broad Institute, 2010)

Target: Serine/threonine-protein kinase 33 (Homo sapiens, UniProt Q9BYT3)
Assay: STK33 kinase inhibitors, dose response, biochemical, luminescence, cell-free, retest (AID 2821)

Chain of Serine/threonine-protein kinase 33 (Q9BYT3 whole entry): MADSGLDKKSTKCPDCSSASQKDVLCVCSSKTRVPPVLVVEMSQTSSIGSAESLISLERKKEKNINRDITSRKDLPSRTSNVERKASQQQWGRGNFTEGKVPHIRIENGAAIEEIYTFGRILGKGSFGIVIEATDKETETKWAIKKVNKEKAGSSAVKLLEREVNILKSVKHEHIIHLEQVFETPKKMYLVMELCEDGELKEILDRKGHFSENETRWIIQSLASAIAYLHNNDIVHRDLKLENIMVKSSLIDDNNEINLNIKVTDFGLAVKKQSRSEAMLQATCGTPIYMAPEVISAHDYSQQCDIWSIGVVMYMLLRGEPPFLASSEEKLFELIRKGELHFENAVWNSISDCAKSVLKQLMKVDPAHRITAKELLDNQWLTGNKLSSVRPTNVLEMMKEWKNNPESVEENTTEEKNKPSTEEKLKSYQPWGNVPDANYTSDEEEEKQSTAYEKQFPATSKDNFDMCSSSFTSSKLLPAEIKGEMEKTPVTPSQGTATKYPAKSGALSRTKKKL

Row | EC50 | Compound
1 | 38.7 µM | CN(C)S(=O)(=O)c1cccc(NC(=S)Nc2ccc3cn[nH]c3c2)c1 [MLS001033726]
2 | 10.1 µM | O=C(Nc1nc2ccccc2[nH]1)c1ccc(Br)o1 [SMR000352903]
3 | 23.4 µM | O=C(NCCCO)c1cc2c([nH]c3ccccc32)c(-c2ccccc2)n1 [MLS001214182]
4 | > 120 µM | Cc1c(C(=O)OCC(=O)N2c3ccccc3CC2C)oc2ccccc12 (configuration not stated) [3-methyl-2-benzofurancarboxylic acid [2-(2-methyl-2,3-dihydroindol-1-yl)-2-oxoethyl] ester]
5 | 3.76 µM | CC(=O)N(C)c1ccc(N=Cc2c(O)ccc3ccccc23)cc1 [MLS001212262]
6 | 27.1 µM | c1cncc(C2Nc3ccccc3-c3nc4ccccc4n32)c1 (configuration not stated) [MLS000098034]
7 | > 120 µM | O=C1NC2c3ccccc3C(=O)N2c2c1cnn2-c1ccccc1 (configuration not stated) [MLS000028140]
8 | > 120 µM | COc1ccc(-c2nc(-c3ccccn3)no2)cc1 [5-(4-methoxyphenyl)-3-(2-pyridinyl)-1,2,4-oxadiazole]
9 | 0.936 µM | COc1cc(C=C2SC(N)=NC2=O)ccc1O [(5Z)-2-azanyl-5-[(3-methoxy-4-oxidanyl-phenyl)methylidene]-1,3-thiazol-4-one]
10 | 19.3 µM | Cc1cc(C=C2C(=O)c3ccccc3C2=O)c(C)n1-c1ccc(C(=O)O)cc1 [4-[3-[(1,3-dioxo-2-indenylidene)methyl]-2,5-dimethyl-1-pyrrolyl]benzoic acid]
11 | 40.4 µM | COc1ccc(C(=O)ON=C(N)c2ccccn2)cc1 [SMR000608101]
12 | 23.1 µM | OCCN1CCN(c2nc(-c3ccccc3O)nc3ccccc23)CC1 [MLS001165184]
13 | 32.3 µM | O=C(O)c1cc(N=NCc2c(O)ccc3ccccc23)ccc1Cl [MLS001173801]
14 | 4 µM | COc1cc(C=C2SC(Nc3ccccc3OC)=NC2=O)ccc1O [5-(4-Hydroxy-3-methoxy-benzylidene)-2-(2-methoxy-phenylimino)-thiazolidin-4-one]
15 | > 120 µM | Cc1cc(C=C2C(=O)c3ccccc3C2=O)c(C)n1-c1cccc(C(=O)O)c1 [3-[3-[[1,3-bis(oxidanylidene)inden-2-ylidene]methyl]-2,5-dimethyl-pyrrol-1-yl]benzoic acid]
16 | 2.43 µM | Oc1ccc(Nc2nc(-c3ccccc3O)nc3ccccc23)cc1
17 | 42.8 µM | CN1CCN(c2nc(-c3ccccc3O)nc3ccccc23)CC1 [SMR000539302]
18 | 16.1 µM | Nc1ccc(N=Nc2ccccc2O)c(N)c1 [SMR000476341]
19 | 11.5 µM | O=C1C=CC(=CCc2ccnc3ccccc23)C=C1 [MLS000705243]
20 | 19.2 µM | Cc1cc(O)ccc1NS(=O)(=O)c1ccc2c3c(cccc13)C(=O)N2 [N-(2-methyl-4-oxidanyl-phenyl)-2-oxidanylidene-1H-benzo[cd]indole-6-sulfonamide]
21 | 4.01 µM | O=c1ccc2cc3c([nH]c4ccc(Br)cc43)oc-2c1O [9-bromo-4-hydroxy-6H-[1]benzopyrano[2,3-b]indol-3-one]
22 | > 120 µM | CNC(=O)c1cnc2ccc(S(=O)(=O)Nc3ccccc3F)cc2c1O
23 | 16.8 µM | O=c1c2ccccc2sc2ccc(NCCCN3CCOCC3)cc12
24 | 11.8 µM | COC(=O)c1cccc2c1-c1ccccc1C2N=O (configuration not stated) [(9Z)-9-hydroximinofluorene-4-carboxylic acid methyl ester]
25 | 5.22 µM | COc1ccc(N=CC2C(=O)Nc3ccccc32)cc1OC (configuration not stated)
26 | 10.3 µM | O=C1c2ccccc2C(=O)C1c1ccncc1 [2-(1H-pyridin-4-ylidene)indane-1,3-quinone]
27 | 29 µM | Cc1nn(C)cc1/C=C/C(=O)c1ccc(O)cc1
28 | 14.9 µM | c1ccc(Nc2ccnc(Nc3ccccc3)n2)cc1 [N*2*,N*4*-Diphenyl-pyrimidine-2,4-diamine]
29 | 14.2 µM | O=C(O)Cn1cc(C=c2sc3nc4ccccc4n3c2=O)c2ccccc21 [SMR000298358]

The remaining lines, values behind:

Row | Compound | EC50
30 | CCn1cc(/C=C/C(=O)c2ccc(O)cc2)c(C)n1 [(E)-3-(1-ethyl-3-methyl-4-pyrazolyl)-1-(4-hydroxyphenyl)-2-propen-1-one] | 9.79 µM
31 | CCCCCCCCCCC[N+](C)(C)CC/C=C1/c2ccccc2Sc2ccc(Cl)cc21 [MLS001165405] | > 120 µM
32 | COc1ccc(-c2onc3ccc(C(=O)/C=C/N(C)C)cc23)cc1 [(E)-3-(dimethylamino)-1-[3-(4-methoxyphenyl)-2,1-benzoxazol-5-yl]-2-propen-1-one] | 5.29 µM
33 | CC(C)(C)c1[nH]nc2c1C(=O)c1ccccc1-2 [SMR000528110] | 25 µM
34 | CCN(CC)c1ccc(Nc2nc(N3CCOCC3)c3ccccc3n2)cc1 [4-N,4-N-diethyl-1-N-(4-morpholin-4-ylquinazolin-2-yl)benzene-1,4-diamine] | > 120 µM
35 | CCCCCCCCCCCCCCCCn1cc[n+](C)c1 [1-cetyl-3-methyl-imidazol-3-ium;bromide] | > 120 µM
36 | O=C1C=CC(O)(c2cc(=O)c3c(O)cc(O)cc3o2)C=C1 [SMR000156275] | > 120 µM
37 | CCN(CC)c1ccc(/C=C2\C(=O)c3ccc(C(=O)O)cc3C2=O)cc1 [2-[1-(4-Diethylamino-phenyl)-meth-(E)-ylidene]-1,3-dioxo-indan-5-carboxylic acid] | 5.66 µM
38 | COc1cc(C(=O)NC2CCN(C)CC2)ccc1Nc1ncc2c(n1)N(C1CCC(O)CC1)CCC(=O)N2C (configuration not stated) [MLS002232305] | 8.38 µM
39 | CCN(CC)C(=O)c1ccc(NC(=O)Nc2ccccc2F)cc1 [SMR000376874] | > 120 µM
40 | O=C(Nc1cc(C(=O)Nc2ccccc2C(=O)O)cc(C(=O)Nc2ccccc2C(=O)O)c1)c1ccccc1 [SMR000658665] | > 120 µM
41 | NC(=S)c1cn(C2OC(CO)C(O)C2O)c2ncnc(N)c12 (configuration not stated) [4-amino-7-[3,4-dihydroxy-5-(hydroxymethyl)oxolan-2-yl]pyrrolo[2,3-d]pyrimidine-5-carbothioamide] | 3.48 µM
42 | CCc1ncc(C=C2C(=O)Nc3ccccc32)[nH]1 [3-[(Z)-(2-ethyl-1H-imidazol-5-yl)methylidene]-1H-indol-2-one] | 5.25 µM
43 | CCn1c(/C=C/c2ccc([N+](=O)[O-])o2)nc2ccccc2c1=O [3-ethyl-2-[(E)-2-(5-nitro-2-furanyl)ethenyl]-4-quinazolinone] | > 120 µM
44 | CCCn1c2ccc(C(C)N=O)cc2c2cc(C(C)N=O)ccc21 (configuration not stated) [1-[6-(1-hydroxyiminoethyl)-9-propyl-3-carbazolyl]ethanone oxime] | 2.48 µM
45 | Cc1nc[nH]c1C(=O)NN=Cc1c(Cl)cccc1Cl [MLS001182271] | > 120 µM
46 | O=C(CSc1nc(N2CCCCC2)nc(N2CCCCC2)n1)c1ccccc1 [2-[[4,6-di(piperidin-1-yl)-1,3,5-triazin-2-yl]sulfanyl]-1-phenyl-ethanone] | > 120 µM
47 | CN(C)C/C=C/C(=O)Nc1cccc(-c2c[nH]c3ncnc(Oc4ccc(NC(=O)CC(=O)Nc5ccc(F)cc5)cc4F)c23)c1 | 6.32 µM
48 | O=C1Nc2ccccc2C1=Cc1cnc[nH]1 [SMR000180717] | 7.94 µM
49 | C=CC(=O)Nc1ccc(Nc2nc(NC3CCC(N(C)C)CC3)nc3c2ncn3C(C)C)cc1 (configuration not stated) [N-[4-[[2-[[4-(dimethylamino)cyclohexyl]amino]-9-propan-2-yl-purin-6-yl]amino]phenyl]prop-2-enamide] | 0.883 µM
50 | COc1cc(N=CC2C(=O)Nc3ccccc32)cc(OC)c1OC (configuration not stated) | 4.93 µM
51 | CC(C)n1cnc2c(Nc3cccc(Cl)c3)nc(NCCCO)nc21 | 1.84 µM
52 | CCOc1ccc(-c2cc(CCCC(=O)NCCCOC)no2)cc1 [4-[5-(4-ethoxyphenyl)-1,2-oxazol-3-yl]-N-(3-methoxypropyl)butanamide] | > 120 µM
